This note sets out measurements from PubChem BioAssay AID330 (DTP/NCI, 2004).

Values joined by “and” are separate entries in the source; they are usually repeats but may differ in a detail not shown here. Equal values may be shown once. Toxic doses and inconclusive results are not listed.

The test system of the test is P388 leukemia ip, CD2F1 mice, survival T/C. Description: NCI In Vivo Anticancer Drug Screen. Data for tumor model P388 Leukemia (intraperitoneal) in CD2F1 (CDF1) mice. The following applies: endpoint: median survival time, higher = longer survival. Put shortly: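 Mice carrying the transplanted tumor received test compound or vehicle. Survival was recorded in each group, and the value is the treated-group measurement divided by that of the vehicle-treated control group.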

Setting [1] is: dose: 60.0 mg/kg/injection, schedule: Q01DX005 (ip), vehicle: saline with Tween-80.
[2] abbreviates: dose: 120.0 mg/kg/injection, schedule: Q01DX005 (ip), vehicle: saline with Tween-80.
The mark [3] stands for this setting: dose: 240.0 mg/kg/injection, schedule: Q01DX005 (ip), vehicle: saline with Tween-80.
[4] abbreviates: dose: 50.0 mg/kg/injection, schedule: Q01DX009 (ip), vehicle: saline.
Where [5] appears, read: dose: 12.5 mg/kg/injection, schedule: Q01DX009 (ip), vehicle: saline with Tween-80.
Where [6] appears, read: dose: 25.0 mg/kg/injection, schedule: Q01DX009 (ip), vehicle: saline with Tween-80.
Where [7] appears, read: dose: 100.0 mg/kg/injection, schedule: Q01DX009 (ip), vehicle: saline with Tween-80.
The mark [8] stands for this setting: dose: 50.0 mg/kg/injection, schedule: Q01DX009 (ip), vehicle: saline with Tween-80.

Turning to `O=C1CCCC2CCC(=O)C12` (stereo not drawn), the T/C is 114 % of control (dose: 100.0 mg/kg/injection, schedule: Q04DX003 (ip), vehicle: other); 97 % of control (dose: 200.0 mg/kg/injection, schedule: Q04DX003 (ip), vehicle: other); 106 % of control (dose: 400.0 mg/kg/injection, schedule: Q04DX003 (ip), vehicle: other).
`C[n+]1ccc2c([N+](=O)[O-])cccc2c1`: the T/C by setting is: (dose: 6.25 mg/kg/injection, schedule: Q01DX005 (ip), vehicle: saline) 103 % of control; (dose: 12.5 mg/kg/injection, schedule: Q01DX005 (ip), vehicle: saline) 112 % of control.
On to `O=S(=O)(Nc1ccc(Br)c2ccccc12)c1ccccc1`, for which the T/C was 95 % of control (dose: 18.75 mg/kg/injection, schedule: Q01DX001 (ip), vehicle: saline with Tween-80); 95 % of control (dose: 37.5 mg/kg/injection, schedule: Q01DX001 (ip), vehicle: saline with Tween-80); 95 % of control (dose: 75.0 mg/kg/injection, schedule: Q01DX001 (ip), vehicle: saline with Tween-80).
On to `Cc1ccc(C(C)C)c2c1CN(CCCN1COc3c(C(C)C)ccc(C)c3C1)CO2`, for which the T/C runs as follows: under setting [1], 91 % of control; under setting [2], 86 % of control.
On to `N#CC1(C#N)OC1(C#N)c1ccccc1` (stereo not drawn), for which the T/C was 100 % of control (dose: 3.0 mg/kg/injection, schedule: Q01DX009 (ip), vehicle: saline with Tween-80); 100 % of control (dose: 6.0 mg/kg/injection, schedule: Q01DX009 (ip), vehicle: saline with Tween-80); 100 % of control (dose: 12.0 mg/kg/injection, schedule: Q01DX009 (ip), vehicle: saline with Tween-80).
For `CCN(C)c1cc2c3c(c1)CCCN3CCC2`, the T/C is 113 % of control (dose: 1.25 mg/kg/injection, schedule: Q01DX009 (ip), vehicle: saline); 100 % of control (dose: 1.25 mg/kg/injection, schedule: Q04DX003 (ip), vehicle: saline); 109 % of control (dose: 2.5 mg/kg/injection, schedule: Q01DX009 (ip), vehicle: saline); 95 % of control (dose: 2.5 mg/kg/injection, schedule: Q04DX003 (ip), vehicle: saline); 104 % of control (dose: 5.0 mg/kg/injection, schedule: Q01DX009 (ip), vehicle: saline); 109 % of control (dose: 5.0 mg/kg/injection, schedule: Q04DX003 (ip), vehicle: saline).
As to `CS(=O)CCCN=C=S` (stereo not drawn), the T/C (dose: 18.75 mg/kg/injection, schedule: Q01DX009 (ip), vehicle: saline with Tween-80) is 111 % of control; the T/C (dose: 37.5 mg/kg/injection, schedule: Q01DX009 (ip), vehicle: saline with Tween-80) is 110 % of control; the T/C (dose: 75.0 mg/kg/injection, schedule: Q01DX009 (ip), vehicle: saline with Tween-80) is 111 % of control.
Consider `COc1ccccc1/C(C)=N/O`, for which the T/C is 100 % of control under setting [1], 95 % of control under setting [2] and 103 % of control under setting [3].
`CCNc1nc(N)nc(N)n1`: the T/C is 102 % of control and 103 % of control and 104 % of control under setting [4]; 107 % of control (dose: 50.0 mg/kg/injection, schedule: Q04DX002 (ip), vehicle: saline); 100 % of control and 102 % of control and 112 % of control (dose: 100.0 mg/kg/injection, schedule: Q01DX009 (ip), vehicle: saline); 98 % of control (dose: 100.0 mg/kg/injection, schedule: Q04DX002 (ip), vehicle: saline); 100 % of control and 110 % of control and 120 % of control (dose: 200.0 mg/kg/injection, schedule: Q01DX009 (ip), vehicle: saline); 98 % of control (dose: 200.0 mg/kg/injection, schedule: Q04DX002 (ip), vehicle: saline). Moreover, the T/C (dose: 400.0 mg/kg/injection, schedule: Q01DX009 (ip), vehicle: saline) is 102 % of control and 110 % of control.
Consider `C=C1C(=O)OC2/C=C(\C)CC/C=C(\C)CC(OC(=O)/C(=C/C)CO)C12` (stereo not drawn), for which the T/C by setting is: (dose: 25.0 mg/kg/injection, schedule: Q01DX001 (ip), vehicle: Klucel (hydroxypropylcellulose) (HPC)) 101 % of control; (dose: 50.0 mg/kg/injection, schedule: Q01DX001 (ip), vehicle: Klucel (hydroxypropylcellulose) (HPC)) 96 % of control; (dose: 100.0 mg/kg/injection, schedule: Q01DX001 (ip), vehicle: Klucel (hydroxypropylcellulose) (HPC)) 110 % of control.
In the case of `Nc1ccc2c(c1)CN1C(=O)c3ccccc3C1=N2`, the T/C was 100 % of control (dose: 6.25 mg/kg/injection, schedule: Q01DX009 (ip), vehicle: saline with Tween-80); 93 % of control under setting [5]; 111 % of control (dose: 22.2 mg/kg/injection, schedule: Q01DX009 (ip), vehicle: saline with Tween-80); 96 % of control under setting [6]; 91 % of control (dose: 25.0 mg/kg/injection, schedule: Q01DX009 (ip), vehicle: saline); 104 % of control (dose: 30.0 mg/kg/injection, schedule: Q01DX009 (ip), vehicle: saline with Tween-80). Also, the T/C (dose: 33.4 mg/kg/injection, schedule: Q01DX009 (oral), vehicle: saline with Tween-80) is 97 % of control; the T/C (dose: 40.0 mg/kg/injection, schedule: Q01DX009 (ip), vehicle: saline with Tween-80) is 90 % of control; the T/C under setting [4] is 161 % of control; the T/C (dose: 50.0 mg/kg/injection, schedule: Q01DX009 (oral), vehicle: saline with Tween-80) is 108 % of control; the T/C (dose: 60.0 mg/kg/injection, schedule: Q01DX009 (ip), vehicle: saline with Tween-80) is 119 % of control; the T/C (dose: 75.0 mg/kg/injection, schedule: Q01DX009 (oral), vehicle: saline with Tween-80) was 108 % of control. For the same compound, the T/C by setting is: under setting [7], 100 % of control and 93 % of control; (dose: 112.4 mg/kg/injection, schedule: Q01DX009 (ip), vehicle: saline with Tween-80) 121 % of control; (dose: 112.4 mg/kg/injection, schedule: Q01DX009 (oral), vehicle: saline with Tween-80) 117 % of control; (dose: 168.5 mg/kg/injection, schedule: Q01DX009 (oral), vehicle: saline with Tween-80) 108 % of control.
On to `O=c1[nH][nH]c(=O)n2c1cc1oc(-c3ccccc3)cc12`, for which the T/C under setting [1] was 86 % of control, the T/C under setting [2] is 90 % of control and the T/C under setting [3] is 86 % of control.
`CC(=O)OC(C)(C)c1ccccc1[S+]1OC(C)(C)c2ccccc21` (stereo not drawn): the T/C (dose: 25.0 mg/kg/injection, schedule: Q01DX001 (ip), vehicle: other) is 101 % of control; the T/C (dose: 50.0 mg/kg/injection, schedule: Q01DX001 (ip), vehicle: other) was 104 % of control; the T/C (dose: 100.0 mg/kg/injection, schedule: Q01DX001 (ip), vehicle: other) was 107 % of control.
Take `CCOCC1COc2c(cc3[nH]cc(C(=O)OCC)c(=O)c3c2Cl)O1` (stereo not drawn) (tested in a mixture with another compound): the T/C is, setting by setting: under setting [8], 94 % of control; under setting [7], 99 % of control; (dose: 200.0 mg/kg/injection, schedule: Q01DX009 (ip), vehicle: saline with Tween-80) 101 % of control.
As to `Cc1ccccc1S(=O)(=O)F`, the T/C is, setting by setting: under setting [6], 100 % of control; (dose: 25.0 mg/kg/injection, schedule: Q04DX003 (ip), vehicle: saline with Tween-80) 100 % of control; under setting [8], 100 % of control; (dose: 50.0 mg/kg/injection, schedule: Q04DX003 (ip), vehicle: saline with Tween-80) 100 % of control; under setting [7], 109 % of control; (dose: 100.0 mg/kg/injection, schedule: Q04DX003 (ip), vehicle: saline with Tween-80) 100 % of control.
For the compound `CC(C)OP(=O)(OC(C)C)c1ccncc1`, the T/C runs as follows: (dose: 100.0 mg/kg/injection, schedule: Q01DX001 (ip), vehicle: saline) 99 % of control; (dose: 200.0 mg/kg/injection, schedule: Q01DX001 (ip), vehicle: saline) 96 % of control; (dose: 400.0 mg/kg/injection, schedule: Q01DX001 (ip), vehicle: saline) 101 % of control.
Consider `CCCCCCCCCCCCCCCC(=O)N(CCCN(C)C)C(C)(C)CCC(C)(C)N(CCCN(C)C)C(=O)CCCCCCCCCCCCCCC`, for which the T/C runs as follows: (dose: 25.0 mg/kg/injection, schedule: Q01DX009 (ip), vehicle: other) 98 % of control; (dose: 50.0 mg/kg/injection, schedule: Q01DX009 (ip), vehicle: other) 96 % of control.
For the compound `CCCCCCCCCCCCCCCC(=O)NCCN(CC)CC`, the T/C is 105 % of control under setting [5] and 100 % of control under setting [6].
